In US8697369B2, “Method for screening a test substance for activating a receptor associated with FGF 21 activity” (National Institute of Advanced Industrial Science and …, priority 2007, dated 2014):
“Also recorded” adds a separate entry of the source.

Legend:
[1] = target: T1, betaKlotho-expressing BaF3 cells (Mus musculus, UniProt Q99N32); experiment: DNA synthesis (thymidine incorporation) in BaF3 cells expressing only betaKlotho; type: cell-based; details: presence or absence of heparin
T1 construct: the entire-length cDNA of mouse betaKlotho was cloned into an animal cell expression vector; expressed in transfected cells; host or cells: BaF3 (mouse pro-B) cells
T1 sequence (Q99N32 1-1043): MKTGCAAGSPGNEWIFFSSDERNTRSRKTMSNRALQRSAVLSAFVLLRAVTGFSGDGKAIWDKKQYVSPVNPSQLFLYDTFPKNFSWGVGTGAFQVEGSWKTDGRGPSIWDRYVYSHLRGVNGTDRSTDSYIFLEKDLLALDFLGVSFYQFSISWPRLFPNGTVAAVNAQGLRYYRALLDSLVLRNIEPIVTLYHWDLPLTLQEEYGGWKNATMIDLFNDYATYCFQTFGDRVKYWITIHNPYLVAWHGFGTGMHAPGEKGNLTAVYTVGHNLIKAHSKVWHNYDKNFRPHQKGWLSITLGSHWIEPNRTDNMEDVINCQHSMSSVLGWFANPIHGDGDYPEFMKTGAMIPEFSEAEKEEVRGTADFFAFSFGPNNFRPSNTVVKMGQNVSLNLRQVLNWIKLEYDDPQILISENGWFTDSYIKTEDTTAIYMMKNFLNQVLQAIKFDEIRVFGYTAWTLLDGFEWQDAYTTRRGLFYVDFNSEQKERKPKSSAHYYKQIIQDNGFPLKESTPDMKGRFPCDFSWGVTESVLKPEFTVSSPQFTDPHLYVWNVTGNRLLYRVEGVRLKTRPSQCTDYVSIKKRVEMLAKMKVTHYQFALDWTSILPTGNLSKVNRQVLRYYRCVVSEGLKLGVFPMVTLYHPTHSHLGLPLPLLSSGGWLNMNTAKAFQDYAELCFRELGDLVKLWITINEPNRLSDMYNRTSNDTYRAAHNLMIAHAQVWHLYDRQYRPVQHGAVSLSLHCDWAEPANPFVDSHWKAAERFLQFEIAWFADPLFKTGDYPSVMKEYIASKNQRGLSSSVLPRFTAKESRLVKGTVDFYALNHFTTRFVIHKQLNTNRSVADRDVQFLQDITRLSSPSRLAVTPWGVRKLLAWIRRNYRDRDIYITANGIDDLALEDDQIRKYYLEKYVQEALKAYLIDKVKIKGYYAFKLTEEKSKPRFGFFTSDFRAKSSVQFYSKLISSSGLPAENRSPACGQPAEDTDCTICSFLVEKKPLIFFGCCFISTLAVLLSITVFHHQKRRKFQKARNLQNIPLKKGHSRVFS
Method: A commonly used measurement method is a cell growth stimulating activity measurement method described in Ornitz, D. M., Xu, J., Colvin, J. S., McEwen, D. G., MacArthur, C. A., Coulier, F., Gao, G. and Goldfarb, M. (1996) Receptor specificity of the fibroblast growth factor family. J Biol Chem, 271, 15292-15297. The summary thereof is as follows. FGF used as a measurement target is added to a culture solution containing a cultured cell having an FGF receptor on the surface thereof, and the obtained mixture is cultured for a certain period of time. Thereafter, a labeled thymidine is added to the culture solution, followed by further culture for a certain period of time. By measuring the amount of the labeled thymidine incorporated into polymeric DNA during the culture, the degree of FGF to activate DNA synthesis is evaluated. (In the present invention as well, this method was adopted when the activity of FGF21 was measured in Examples 4, 5, 6, 8, 9, and 10.) […]
Immediately after inoculation, BaF3 cells that had expressed each clone and only FGFR1c were stimulated by addition of FGF21 (open bar) or PBS (filled bar) used as a control in the presence of heparin, and they were then cultured for 42 hours. […] Thereafter, the amount of thymidine incorporated into the cells was measured, so as to evaluate DNA synthesis. […]

[2] = target: T2, FGFR1c/betaKlotho-expressing BaF3 cells (Mus musculus, UniProt P16092+Q99N32); experiment: DNA synthesis (thymidine incorporation) in FGFR1c/betaKlotho-expressing BaF3 cells; type: cell-based
T2 construct: the entire-length cDNA of mouse FGFR1c had been cloned; the entire-length cDNA of mouse betaKlotho was cloned into an animal cell expression vector; expressed in transfected cells; host or cells: BaF3 (mouse pro-B) cells
T2 sequence (P16092 22-822, one chain of several): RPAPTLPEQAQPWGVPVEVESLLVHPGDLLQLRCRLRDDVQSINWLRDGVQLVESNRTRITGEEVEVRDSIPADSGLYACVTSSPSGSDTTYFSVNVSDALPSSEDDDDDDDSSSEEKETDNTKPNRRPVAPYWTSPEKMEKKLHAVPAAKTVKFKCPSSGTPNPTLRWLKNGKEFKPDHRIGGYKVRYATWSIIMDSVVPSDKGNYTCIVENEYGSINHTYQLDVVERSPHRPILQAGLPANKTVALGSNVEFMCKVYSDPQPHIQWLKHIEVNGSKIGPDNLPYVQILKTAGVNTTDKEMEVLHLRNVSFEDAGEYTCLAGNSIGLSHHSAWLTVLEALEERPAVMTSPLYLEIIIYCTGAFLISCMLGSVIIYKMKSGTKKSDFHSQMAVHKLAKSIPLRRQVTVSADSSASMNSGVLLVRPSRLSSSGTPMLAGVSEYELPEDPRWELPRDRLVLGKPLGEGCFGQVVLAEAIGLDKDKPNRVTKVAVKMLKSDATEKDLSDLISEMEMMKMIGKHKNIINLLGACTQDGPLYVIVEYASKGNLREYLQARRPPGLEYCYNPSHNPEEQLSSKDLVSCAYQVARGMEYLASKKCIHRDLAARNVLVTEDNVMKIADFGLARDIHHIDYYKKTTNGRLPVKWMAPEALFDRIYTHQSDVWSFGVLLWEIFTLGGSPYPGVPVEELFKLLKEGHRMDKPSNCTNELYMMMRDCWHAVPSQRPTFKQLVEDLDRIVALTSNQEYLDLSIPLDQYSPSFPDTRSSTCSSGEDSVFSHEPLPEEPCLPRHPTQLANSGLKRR
Method: (§1) A commonly used measurement method is a cell growth stimulating activity measurement method described in Ornitz, D. M., Xu, J., Colvin, J. S., McEwen, D. G., MacArthur, C. A., Coulier, F., Gao, G. and Goldfarb, M. (1996) Receptor specificity of the fibroblast growth factor family. J Biol Chem, 271, 15292-15297. The summary thereof is as follows. FGF used as a measurement target is added to a culture solution containing a cultured cell having an FGF receptor on the surface thereof, and the obtained mixture is cultured for a certain period of time. Thereafter, a labeled thymidine is added to the culture solution, followed by further culture for a certain period of time. By measuring the amount of the labeled thymidine incorporated into polymeric DNA during the culture, the degree of FGF to activate DNA synthesis is evaluated. (In the present invention as well, this method was adopted when the activity of FGF21 was measured in Examples 4, 5, 6, 8, 9, and 10.)
FGFR1c-expressing BaF3 cells and FGFR1c- and betaKlotho-expressing BaF3 cells were prepared as follows. In the case of FGFR1c-expressing BaF3 cells, an animal cell expression vector into which the entire-length cDNA of mouse FGFR1c had been cloned (described in Ornitz, D. M., Xu, J., Colvin, J. S., McEwen, D. G., MacArthur, C. A., Coulier, F., Gao, G. and Goldfarb, M. (1996) Receptor specificity of the fibroblast growth factor family. J Biol Chem, 271, 15292-15297.) was introduced into BaF3 cells by an electroporation method. The cells were then cultured in the presence of G418 for approximately 2 weeks, so as to obtain drug-resistant clones. Thereafter, such clones were obtained as those capable of growing as a result of FGF1 stimulation. In the case of both FGFR1c- and betaKlotho-expressing BaF3 cells, the entire-length cDNA of mouse betaKlotho was cloned into an animal cell expression vector, and it was then introduced into the FGFR1c-expressing BaF3 cells. The cells were then cultured in the presence of Puromycin and G418 for approximately 2 weeks, so as to obtain drug-resistant clones. In the case of only betaKlotho-expressing BaF3 cells, a betaKlotho-expressing vector was introduced into BaF3 cells, and Puromycin-resistant clones were then obtained. The BaF3 cells, into which the aforementioned genes had been each introduced, were maintained in an RPMI1640 medium containing 10% FBS and interleukin 3 (IL3, supplied by adding a 5% condition medium of WEHI-3 cells). For the growth stimulation experiment, the cells were washed with an RPMI1640 medium, and they were then suspended in an RPMI1640 medium containing 10% FBS, followed by inoculating the suspension on a culture plate. Thereafter, the resultant cells were used.
Immediately after inoculation, BaF3 cells that had expressed each clone and only FGFR1c were stimulated by addition of FGF21 (open bar) or PBS (filled bar) used as a control in the presence of heparin, and they were then cultured for 42 hours. Thereafter, tritium-labeled thymidine was added to the culture solution, and the culture was further continued for 6 hours. Thereafter, the amount of thymidine incorporated into the cells was measured, so as to evaluate DNA synthesis. A DNA synthesis value obtained when the cells were not stimulated with FGF21 was defined as 1, and the ratio of a DNA synthesis value obtained by stimulating with FGF21 to the aforementioned DNA synthesis value was expressed using magnification. […]

[3] = tested on: FGFR4/betaKlotho-expressing cells; experiment: Phosphorylation of FRS2 and MAPK (Western blotting) in FGFR4/betaKlotho-expressing cells; type: cell-based, mouse; details: presence of heparin; 10 minutes stimulation
Chain of FGFR4/betaKlotho-expressing cells (Q03142 143-366 limits assumed, one chain of several): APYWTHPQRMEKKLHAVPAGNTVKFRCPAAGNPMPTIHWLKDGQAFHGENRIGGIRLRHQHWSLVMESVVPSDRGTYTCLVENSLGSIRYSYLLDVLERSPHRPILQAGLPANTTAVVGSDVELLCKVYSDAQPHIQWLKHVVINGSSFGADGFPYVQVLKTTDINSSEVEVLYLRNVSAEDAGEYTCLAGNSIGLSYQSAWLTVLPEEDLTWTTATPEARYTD
Method: (§2) Each FGFR/betaKlotho-expressing cells obtained in Example 6 were stimulated with FGF, and the activated state (phosphorylated state) of a signaling molecule FRS2 (fibroblast growth factor receptor substrate 2) located downstream of FGFR, and that of MAPK (mitogen activated protein kinase; alias: ERK (extracellular signal-regulated kinase; in general, there are two types of ERKs, namely, ERK1 with a molecular weight of 44 kDa and ERK2 with a molecular weight of 42 kDa)), were analyzed. Different types of cells were stimulated with each FGF in the presence of heparin for 10 minutes, and a cell lysate was then prepared. Thereafter, the phosphorylated degree was evaluated by measuring it by a Western blotting method using a commercially available anti-phosphorylation FRS2 antibody or an anti-phosphorylation MAPK antibody.

[4] = tested on: FGFR3c/betaKlotho-expressing BaF3 cells; experiment: DNA synthesis (thymidine incorporation) in FGFR3c/betaKlotho-expressing BaF3 cells; type: cell-based, mouse
Chain of FGFR3c/betaKlotho-expressing BaF3 cells (Q61851 21-369 limits assumed, one chain of several): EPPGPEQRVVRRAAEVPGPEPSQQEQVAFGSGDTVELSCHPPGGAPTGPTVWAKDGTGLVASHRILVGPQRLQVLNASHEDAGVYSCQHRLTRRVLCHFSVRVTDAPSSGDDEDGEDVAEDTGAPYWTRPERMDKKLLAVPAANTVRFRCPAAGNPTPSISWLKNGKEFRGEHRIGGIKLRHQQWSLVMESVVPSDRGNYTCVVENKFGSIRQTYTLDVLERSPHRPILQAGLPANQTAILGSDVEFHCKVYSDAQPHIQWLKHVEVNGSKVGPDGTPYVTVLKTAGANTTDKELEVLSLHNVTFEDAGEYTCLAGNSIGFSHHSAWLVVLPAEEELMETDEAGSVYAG
Method: as §1
(§3) Whether other receptor molecules can also act as such FGF receptors was examined. An expression vector containing each FGFR (FGFR1b, R1c, R2b, R2c, R3b, R3c, and R4) (described in Ornitz, D. M., Xu, J., Colvin, J. S., McEwen, D. G., MacArthur, C. A., Coulier, F., Gao, G. and Goldfarb, M. (1996) Receptor specificity of the fibroblast growth factor family. J Biol Chem, 271, 15292-15297.) was introduced into betaKlotho-expressing BaF3 cells, so as to obtain clones that were resistant to Puromycin and G418, thereby obtaining FGFR/betaKlotho-expressing cells. Such cells were stimulated with FGF21, and the amount of DNA synthesized was measured.
The activity of FGF21 to stimulate the DNA synthesis of BaF3 cells that had expressed each FGFR (FGFR1c, R2c, F3c, and R4) as well as betaKlotho was compared with the activity of FGF19, which was evolutionally relative to FGF21. By procedures opposite to those of Example 5, namely, an expression vector containing betaKlotho was introduced into BaF3 cells that had expressed each type of FGFR, so as to obtain Puromycin- and G418-resistant clones, thereby obtaining FGFR/betaKlotho-expressing cells. The cells were stimulated with FGF21, FGF19, and FGF1 in the presence of heparin, while changing the amounts of FGF21, FGF19, and FGF1, as shown in the figure, and the amount of DNA synthesized was then measured.

[5] = tested on: FGFR4/betaKlotho-expressing BaF3 cells; experiment: DNA synthesis (thymidine incorporation) in FGFR4/betaKlotho-expressing BaF3 cells; type: cell-based, mouse; details: BaF3 cells expressing FGFR4 and betaKlotho; presence of heparin
Chain of FGFR4/betaKlotho-expressing BaF3 cells (Q03142 17-366 limits assumed, one chain of several): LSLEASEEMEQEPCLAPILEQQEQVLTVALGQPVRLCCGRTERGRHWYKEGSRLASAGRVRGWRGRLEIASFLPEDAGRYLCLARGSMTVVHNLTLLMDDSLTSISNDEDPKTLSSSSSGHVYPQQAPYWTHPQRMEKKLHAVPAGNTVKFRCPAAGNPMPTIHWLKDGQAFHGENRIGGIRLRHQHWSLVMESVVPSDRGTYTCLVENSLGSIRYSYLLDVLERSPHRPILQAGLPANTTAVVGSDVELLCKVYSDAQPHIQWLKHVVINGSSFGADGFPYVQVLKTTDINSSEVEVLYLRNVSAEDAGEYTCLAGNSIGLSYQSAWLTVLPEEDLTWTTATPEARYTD
Method: as §1, §3
(§4) The activity of FGF21 to stimulate the DNA synthesis of BaF3 cells that had expressed each FGFR (FGFR1c, R2c, F3c, and R4) as well as betaKlotho was compared with the activity of FGF19, which was evolutionally relative to FGF21. […] The cells were stimulated with FGF21, FGF19, and FGF1 in the presence of heparin, while changing the amounts of FGF21, FGF19, and FGF1, as shown in the figure, and the amount of DNA synthesized was then measured.

[6] = target: T3, FGFR2c/betaKlotho-expressing BaF3 cells (Mus musculus, UniProt P21803+Q99N32); experiment: DNA synthesis (thymidine incorporation) in FGFR2c/betaKlotho-expressing BaF3 cells; type: cell-based; details: BaF3 cells expressing FGFR2c and betaKlotho; presence of heparin
T3 construct: the entire-length cDNA of mouse betaKlotho was cloned into an animal cell expression vector; expressed in transfected cells; host or cells: BaF3 (mouse pro-B) cells
T3 sequence (P21803 22-821, one chain of several): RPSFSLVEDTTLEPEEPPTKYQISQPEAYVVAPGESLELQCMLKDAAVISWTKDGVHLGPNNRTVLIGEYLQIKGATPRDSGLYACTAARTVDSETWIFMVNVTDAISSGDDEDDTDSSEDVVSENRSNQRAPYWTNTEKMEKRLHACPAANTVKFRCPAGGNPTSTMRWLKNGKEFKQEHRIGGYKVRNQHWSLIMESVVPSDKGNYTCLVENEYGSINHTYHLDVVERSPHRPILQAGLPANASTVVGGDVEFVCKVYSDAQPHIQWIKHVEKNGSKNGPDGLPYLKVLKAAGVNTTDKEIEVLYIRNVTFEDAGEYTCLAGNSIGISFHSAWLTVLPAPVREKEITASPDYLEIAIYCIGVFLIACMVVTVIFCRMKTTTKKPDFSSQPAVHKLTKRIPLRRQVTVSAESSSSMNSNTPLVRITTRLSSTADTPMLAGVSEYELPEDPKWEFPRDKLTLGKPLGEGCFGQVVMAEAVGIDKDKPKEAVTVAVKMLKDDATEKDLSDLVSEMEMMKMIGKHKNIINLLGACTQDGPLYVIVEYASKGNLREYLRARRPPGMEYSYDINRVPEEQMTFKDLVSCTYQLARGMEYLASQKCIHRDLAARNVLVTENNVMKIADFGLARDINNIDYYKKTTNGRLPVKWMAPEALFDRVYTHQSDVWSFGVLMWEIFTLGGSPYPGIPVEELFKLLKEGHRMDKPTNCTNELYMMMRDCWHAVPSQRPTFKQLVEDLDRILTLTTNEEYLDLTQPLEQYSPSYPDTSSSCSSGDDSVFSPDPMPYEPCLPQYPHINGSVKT
Method: as §1, §3, §4

[7] = tested on: R3c/betaKlotho-expressing cells; experiment: Phosphorylation of FRS2 and MAPK (Western blotting) in R3c/betaKlotho-expressing cells; type: cell-based, mouse; details: presence of heparin; 10 minutes stimulation
Chain of R3c/betaKlotho-expressing cells (Q61851 21-369 limits assumed, one chain of several): as the sequence (Q61851 21-369 limits assumed, one chain of several) above
Method: as §2

[8] = target: T4, FGFR2c/betaKlotho-expressing cells (Mus musculus, UniProt P21803+Q99N32); experiment: Phosphorylation of FRS2 and MAPK (Western blotting) in FGFR2c/betaKlotho-expressing cells; type: cell-based; details: presence of heparin; 10 minutes stimulation
T4 construct: the entire-length cDNA of mouse betaKlotho was cloned into an animal cell expression vector; expressed in transfected cells; host or cells: BaF3 (mouse pro-B) cells
T4 sequence (P21803 22-821, one chain of several): as the sequence (P21803 22-821, one chain of several) above
Method: as §2

[9] = target: T5, R1c/betaKlotho-expressing cells (Mus musculus, UniProt P16092+Q99N32); experiment: Phosphorylation of FRS2 and MAPK (Western blotting) in R1c/betaKlotho-expressing cells; type: cell-based; details: presence of heparin; 10 minutes stimulation
T5 construct: the entire-length cDNA of mouse FGFR1c had been cloned; the entire-length cDNA of mouse betaKlotho was cloned into an animal cell expression vector; expressed in transfected cells; host or cells: BaF3 (mouse pro-B) cells
T5 sequence (P16092 22-822, one chain of several): as the sequence (P16092 22-822, one chain of several) above
Method: as §2

**Q.** For interleukin 3 [reference compound], which “DNA synthesis (thymidine incorporated into the cells)” value [1] is on record?
**A.** significantly grew

**Q.** “FGF19: FGF family member evolutionally relative to FGF21, used for comparison” was tested. Which “DNA synthesis (thymidine incorporated into the cells)” value ([2]; BaF3 cells expressing FGFR1c and betaKlotho, presence or absence of heparin) did it give?
**A.** strong activity

**Q.** And the “phosphorylation of FRS2 and MAPK” value [3]?
**A.** significantly increase the phosphorylation

**Q.** And the “DNA synthesis (thymidine incorporated into the cells)” value ([4]; BaF3 cells expressing FGFR3c and betaKlotho)?
**A.** strong activity

**Q.** And the “DNA synthesis (thymidine incorporated into the cells)” value [5]?
**A.** strong activity

**Q.** And the “DNA synthesis (thymidine incorporated into the cells)” value [6]?
**A.** strong activity

**Q.** And the “phosphorylation of FRS2 and MAPK” value [7]?
**A.** significantly increase the phosphorylation

**Q.** And the “phosphorylation of FRS2 and MAPK” value [8]?
**A.** significantly increase the phosphorylation

**Q.** And the “phosphorylation of FRS2 and MAPK” value [9]?
**A.** significantly increase the phosphorylation

**Q.** For heparin [reference compound], which “effect of heparin on the action of FGF21 (DNA synthesis)” value ([2]; FGFR1c/betaKlotho-expressing BaF3 cells stimulated with FGF21) is on record?
**A.** increases the action of FGF21; also recorded: reactivity was increased

**Q.** And the “effect of heparin on reactivity with FGF21 (DNA synthesis)” value ([4]; FGFR3c/betaKlotho-expressing BaF3 cells stimulated with FGF21)?
**A.** reactivity was increased
